Where a name gives a salt, the structure may show the parent alone.
Tested on: MCH58 fibroblasts
Assay: Mass spectrometry-based metabolite profiling
Format: cell-based, human
Procedure: Metabolite profiling was performed on MCH58 fibroblasts following treatment with 50 μM meclizine or vehicle control for six hours, using methods similar to those previously described, see […] et al., Mol Syst Biol 4:214 (2008). […] For assessment of media metabolites, 500 μl of spent media or baseline media (prior to addition to cells) were sampled from the culture dish and immediately added to 500 μl of pre-cooled (-80° C.) methanol extraction solution (80% methanol, 20% H2O) to allow for rapid quenching of metabolism and extraction of metabolites. After 20 minutes at 4° C., samples were centrifuged at 14,000 g for 10 minutes. 50 μl of the supernatant was collected, re-diluted 1:20 with methanol extraction solution, and 100 μl of the final solution evaporated under nitrogen. Samples were reconstituted in 60 μl of HPLC-grade water and metabolite levels determined, as described below. For assessment of intracellular metabolites, media was aspirated from the above tissue culture plates and cells gently washed with 4 mL of PBS, to ensure complete removal of residual media metabolites. The PBS was removed and cellular metabolism quenched with immediate addition of 1 mL of pre-cooled (-80° C.) methanol extraction solution (80% methanol, 20% H2O). Cells were scraped, collected in extraction solution, vortexed and the samples centrifuged as described above for preparation of media samples. 100 μl of the supernatant was collected, re-diluted 1:1 with methanol extraction solution, and 100 μl of the final solution evaporated under nitrogen. Samples were reconstituted in 60 μl of HPLC-grade water and metabolites assessed. Six biological replicates were assessed for each group. Analyses of endogenous metabolites were performed using a liquid chromatography tandem mass spectrometry (LC-MS) system composed of a 4000 QTRAP triple quadrupole mass spectrometer (Applied Biosystems/SCIEX) coupled to three Agilent 1100 binary HPLC pumps (Agilent Technologies) and an HTS PAL autosampler (LEAP Technologies) equipped with three injection ports and a column selector valve. Three multiplexed chromatographic methods were configured for the analyses of each sample: LC method 1 used a Luna Phenyl-Hexyl column (Phenomenex) eluted with a linear gradient of water/acetonitrile/acetic acid (initial proportions 100/0/0.001, final proportions 10/90/0.001); […] LC method 3 used a Synergi Polar-RP column (Phenomenex) with reversed phase, gradient elution using 5% acetonitrile/5 mM ammonium acetate (mobile phase A) and 95% acetonitrile/5 mM ammonium acetate (mobile phase B). MS data were acquired using multiple reaction monitoring (MRM) in both the positive (LC method 1) and negative (LC methods 2 and 3) ion modes. During the development of this method, authentic reference compounds were used to determine LC retention times and to tune MRM transitions. Metabolite quantification was performed by integrating peak areas for specific MRM transitions using MultiQuant software (version 1.1; Applied Biosystems/SCIEX) and all integrated peaks were manually reviewed for quality. Extraction and quantification procedures were optimized prior to assessment of samples in this study to ensure measured intracellular and media metabolites were within the linear range of detection. Confirmation of the phosphoethanolamine peak was performed using an exogenous phosphoethanolamine standard (Sigma P0503).

[1] = intracellular, 50 μM, 6 h, over DMSO

## Cc1cccc(CN2CCN(C(c3ccccc3)c3ccc(Cl)cc3)CC2)c1 (racemic) [Meclizine, meclizine hydrochloride]
[1]
  Fold Change P1_M0003_2′-deoxycytidine: 1.13
  Fold Change P1_M0007_Acetylcholine_p2_Met-146: 1.06
  Fold Change P1_M0008_Alanine: 1.40
  Fold Change P1_M0009_Allantoin: 0.91
  Fold Change P1_M0012_Arginine: 1.01
  Fold Change P1_M0013_Argininosuccinate: 1.08
  Fold Change P1_M0014_Asparagine: 2.43
  Fold Change P1_M0015_Aspartate: 1.25
  Fold Change P1_M0016_Betaine: 1.08
  Fold Change P1_M0018_Carnosine: 1.00
  Fold Change P1_M0019_Choline: 0.90
  Fold Change P1_M0022_Creatine: 1.47
  Fold Change P1_M0023_Creatinine: 1.03
  Fold Change P1_M0026_Cysteine: 1.38
  Fold Change P1_M0027_Cytidine: 1.28
  Fold Change P1_M0030_DimethylGlycine: 0.98
  Fold Change P1_M0034_GlutamicAcid_p2: 1.16
  Fold Change P1_M0035_Glutamine: 1.05
  Fold Change P1_M0038_Histidine: 1.07
  Fold Change P1_M0039_Homocysteine: 0.95
  Fold Change P1_M0040_Homoserine: 1.14
  Fold Change P1_M0041_Hydroxyproline: 1.17
  Fold Change P1_M0042/M0044_Ile/Leu: 0.91
  Fold Change P1_M0045_Lysine: 1.08
  Fold Change P1_M0046_Metanephrine_p2: 0.87
  Fold Change P1_M0047_Methionine: 1.06
  Fold Change P1_M0050_Niacinamide: 1.08
  Fold Change P1_M0052_Ornithine: 1.01
  Fold Change P1_M0053_Phenylalanine: 1.09
  Fold Change P1_M0054_Phosphoethanolamine: 38.21
  Fold Change P1_M0055_Proline: 1.28
  Fold Change P1_M0056_Pyridoxine: 1.15
  Fold Change P1_M0058_Serine: 1.11
  Fold Change P1_M0062_Taurine: 1.59
  Fold Change P1_M0063_Threonine: 1.14
  Fold Change P1_M0066_Tryptophan: 1.13
  Fold Change P1_M0067_Tyrosine: 1.18
  Fold Change P1_M0068/M0037_Valine/GuanidinoaceticAcid: 0.94
  Fold Change P1_M0070_Xanthosine: 1.21
  Fold Change P1_M0142_Thymidine: 0.97
  Fold Change P1_M0200_L-NMMA: 0.59
  Fold Change P1_M0201/M0202_ADMA/SDMA: 0.99
  Fold Change P1_M0204_Glycerol: 0.94
  Fold Change P1_NM001-M68_Valine-d8: 1.01
  Fold Change P3_M0077_Acetoacetate: 1.07
  Fold Change P3_M0081_ADP_p2: 1.43
  Fold Change P3_M0082_AMP: 1.31
  Fold Change P3_M0100_FolicAcid: 0.63
  Fold Change P3_M0102/M0103/M0196_F16DiP/F26DiP/G16DiP_D79_p2: 1.32
  Fold Change P3_M0104-M0107_F1P/F6P/G1P/G6P_D97: 0.97
  Fold Change P3_M0109-M0110_Glucose/Galactose: 0.94
  Fold Change P3_M0111_GlutathioneOxidized: 1.20
  Fold Change P3_M0112_GlutathioneReduced: 1.74
  Fold Change P3_M0113_Glyceraldehyde: 1.00
  Fold Change P3_M0114_Glycerol-3-P: 1.21
  Fold Change P3_M0121_Hypoxanthine: 1.17
  Fold Change P3_M0126_LacticAcid: 0.99
  Fold Change P3_M0127_Lactose: 0.42
  Fold Change P3_M0129_NAD: 1.11
  Fold Change P3_M0130_NADP: 1.24
  Fold Change P3_M0139_Sorbitol: 0.92
  Fold Change P3_M0140_Sucrose: 1.18
  Fold Change P3_M0145/M0146_UDP-Glucose/UDP-Galactose_p2: 1.33
  Fold Change P3_M0147_UDP-GlucuronicAcid: 1.45
  Fold Change P3_M0149_Uracil: 0.90
  Fold Change P3_M0150_Uridine: 0.88
  Fold Change P3_M0152_Xanthine: 0.85
  Fold Change P3_M0154_Methylmalonate: 0.86
  Fold Change P3_M0164/M0175_FumaricAcid/MaleicAcid: 1.07
  Fold Change P3_M0195_3-PhosphoglycericAcid: 1.45
  Fold Change P3_NM002-M109_Glucose-13C6-d7: 1.02
  Fold Change P3_NM003-M161_CitricAcid-d4: 0.97
  Fold Change P4_CAP193_Met-165: 0.90
  Fold Change P4_M0083_ATP_D159: 1.27
  Fold Change P4_M0088_CMP: 1.27
  Fold Change P4_M0089_CTP: 1.32
  Fold Change P4_M0090_Cystathionine: 1.53
  Fold Change P4_M0091_DCDP: 1.09
  Fold Change P4_M0092_DCMP: 1.17
  Fold Change P4_M0093_DCTP: 1.02
  Fold Change P4_M0097_DUMP: 0.88
  Fold Change P4_M0100_FolicAcid: 0.84
  Fold Change P4_M0102/M0103/M0196_F16DiP/F26DiP/G16DiP_D79_p1: 1.14
  Fold Change P4_M0102/M0103/M0196_F16DiP/F26DiP/G16DiP_D241: 1.07
  Fold Change P4_M0108_GDP_p1: 1.38
  Fold Change P4_M0116_GTP: 1.24
  Fold Change P4_M0121_Hypoxanthine: 0.76
  Fold Change P4_M0123_Inosine_p2: 1.18
  Fold Change P4_M0126_LacticAcid: 0.96
  Fold Change P4_M0137/M0138_Ribose-5-P/Ribulose-5-P_D97: 1.07
  Fold Change P4_M0140_Sucrose: 1.10
  Fold Change P4_M0144_UDP: 1.21
  Fold Change P4_M0148_UMP_p1: 0.83
  Fold Change P4_M0151_UTP: 1.09
  Fold Change P4_M0157/M0156_Alpha-Keto-Glutarate/AdipicAcid: 1.06
  Fold Change P4_M0158_AscorbicAcid: 0.96
  Fold Change P4_M0159_CDP: 1.52
  Fold Change P4_M0161/M0172_CitricAcid/IsocitricAcid: 0.66
  Fold Change P4_M0162_Citrulline: 0.87
  Fold Change P4_M0163_DHAP: 0.98
  Fold Change P4_M0164/M0175_FumaricAcid/MaleicAcid: 0.94
  Fold Change P4_M0165_GeranylPyrophosphate: 1.18
  Fold Change P4_M0166_Glucuronate: 0.77
  Fold Change P4_M0167_Glycerate-2-P_p1_Met-185: 1.09
  Fold Change P4_M0168_GlycochenodeoxycholicAcid: 0.83
  Fold Change P4_M0169_GlycocholicAcid: 0.68
  Fold Change P4_M0170_HippuricAcid: 0.86
  Fold Change P4_M0173_Kynurenine: 0.96
  Fold Change P4_M0176_MalicAcid: 0.96
  Fold Change P4_M0180_OH-PhenylPyruvate: 0.86
  Fold Change P4_M0183_Oxaloacetate: 0.92
  Fold Change P4_M0184_PantothenicAcid: 1.29
  Fold Change P4_M0185_Pyridoxal-5-phosphate_p1: 1.01
  Fold Change P4_M0187_SuccinicAcid: 0.83
  Fold Change P4_M0188_TaurochenodeoxycholicAcid: 0.76
  Fold Change P4_M0190_UricAcid: 0.87
  Fold Change P4_M0191_Xanthosine-5′-monophosphate: 1.75
  Fold Change P4_M0198_AconiticAcid(CAP203)_D129: 0.55
  Fold Change P4_M0205_PhosphoTyrosine: 1.23
  Fold Change P4_M0206_Acetyl-CoA_P404: 1.22
  Fold Change P4_M0207_Malonyl-CoA_p1: 1.16
  Fold Change P4_M0210_Pyruvate: 1.08
  Fold Change P4_NM002-M109_Glucose-13C6-d7: 1.15
  Fold Change P4_NM003-M161_CitricAcid-d4_p1: 1.02
Six hours after treatment
  increase of intracellular phosphoethanolamine: ~35 fold
